Assays:
[1] = Salting in: solubility in absolute ethanol with and without egg phosphatidylcholine; format: physicochemical; settings: for salting in / form of apparent solubility / increase in solubility or apparent solubility (co-solubilizing or salting-in): lipid in lipid solvent
Experimental: To determine whether phospholipids can increase the solubility or apparent solubility of a pharmacological agent such as salicylic acid acetate, both drug and lipid were co-solubilized in a lipid solvent such as absolute ethanol (USP). Five ml of this lipid solvent was able to dissolve about a maximum of 1 gr. salicylic acid acetate. A lipid such as egg phosphatidylcholine was completely dissolved in 5 ml of ethanol in a series of test tubes and to this solution crystals of the test pharmacological agent salicylic acid acetate were added gradually and dissolved. […] Any convenient temperature and pressur may be used for this procedure that will dot adversely affect the pharmacological agent or boil the lipid solvent.
Five ml of absolute ethanol was able to dissolve maximum 1 gr. salicylic acid acetate. Egg phosphatidylcholine (Hepar) 1.5 gm was completely dissolved in 5 ml of ethanol in a series of test tubes and to this solution crystals of salicylic acid acetate were added gradually and dissolved. […] To accelerate the dissolving process all test tubes containing crystals of salicylic acid acetate and lipid solvent were agitated gently in a water bath of 40° C. and cooled to about 22.5° C.+/- about 2.5° C. after crystals were completely dissolved.

[2] = Stability of agent to water (hydrolysis) in ethanol; format: physicochemical; settings: water even at about 5% in ethanol

| SMILES | salting in / form of apparent solubility [1] | salting in / form of apparent solubility ([1]; listed as Amphoteracin B) | increase in solubility of drug (salting in) ([1]; egg phosphatidylcholine ethanol versus ethanol) | increase in solubility or apparent solubility (co-solubilizing or salting-in) [1] | maximum amount dissolved in absolute ethanol [1] | tolerance of water (hydrolysis) [2] |
| --- | --- | --- | --- | --- | --- | --- |
| C[C@@H]1[C@H](O)[C@@H](C)/C=C/C=C/C=C/C=C/C=C/C=C/C=C/[C@H](O[C@@H]2O[C@H](C)[C@@H](O)[C@H](N)[C@@H]2O)C[C@@H]2O[C@](O)(C[C@@H](O)C[C@@H](O)[C@H](O)CC[C@@H](O)C[C@@H](O)CC(=O)O[C@H]1C)C[C@H](O)[C@H]2C(=O)O [amphotericin B] | in the form of a complex with dissolved lipid rather than truly solubilized | similarly salted in but appears to do so in the form of complexes with lipid rather than simple solubilizing | – | – | – | – |
| COc1ccc2c(c1)c(CC(=O)O)c(C)n2C(=O)c1ccc(Cl)cc1 [indomethacin] | – | – | about 50% | ≤ 50% | – | – |
| CC(=O)Oc1ccccc1C(=O)O [salicylic acid acetate] | – | – | – | ≤ 50% | ~1 gr. | do not tolerate the presence of water even at about 5% in ethanol |
